The target of series [1] is Melanin Concentrating Hormone Receptor 1 (MCHR1) (Homo sapiens (Human), UniProt Q99705). Kind of series: MCHR1 receptor activation assay (GTPγ35S). Type of series: biochemical.
Another series relates to human hepatocytes. The experiment in a line: Estimation of covalent binding of small molecules to proteins in hepatocytes (fCVB). The format is in vitro ADME. The following applies: binding of 3H- or 14C-labelled compound to cryopreserved human hepatocytes. The procedure:
Estimation of Covalent Binding of Small Molecules to Proteins in Hepatocytes:
The assay is based on the modification of a published method (Day, S. H.; Mao, A.; White, R.; Schulz-Utermoehl, T.; Miller, R.; Beconi, M. G. (2005) A semi-automated method for measuring the potential for protein covalent binding in drug discovery. J. Pharmacol. Toxicol. Methods 52, 278-285.). Briefly, cryopreserved human hepatocytes are incubated in the presence of radiolabeled drug candidate in 24-well plates for a pre-determined period to allow sufficient turnover of the parent compound. Following the incubation period, samples are taken out and quenched by cold acetone in order to facilitate precipitation of proteins. […] After solubilization of proteins collected on filter papers, radioactive content and amount of protein is determined to give an estimate of pmol equivalent drug molecule bound per mg protein. In addition to assessing the extent of covalent binding, the turnover of the parent drug is quantified to give an estimate of fraction of metabolites leading to covalent binding (fCVB).
One aspect of the metabolic profile is the formation of reactive metabolites, where compounds of this invention in general are less prone to form such reactive metabolites. […] An fCVB value can then be calculated.

Chain of Melanin Concentrating Hormone Receptor 1 (MCHR1) (Q99705 whole entry): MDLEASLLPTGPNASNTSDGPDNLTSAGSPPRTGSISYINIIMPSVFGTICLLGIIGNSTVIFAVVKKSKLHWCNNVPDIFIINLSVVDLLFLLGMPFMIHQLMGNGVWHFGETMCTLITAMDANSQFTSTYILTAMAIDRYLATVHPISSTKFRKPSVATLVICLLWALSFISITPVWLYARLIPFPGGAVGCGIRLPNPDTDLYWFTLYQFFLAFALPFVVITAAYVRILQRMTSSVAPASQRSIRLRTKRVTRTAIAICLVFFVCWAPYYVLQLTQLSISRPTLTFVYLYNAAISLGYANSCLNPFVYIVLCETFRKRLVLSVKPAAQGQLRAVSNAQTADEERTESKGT

One may read the IC50 as the point on the concentration scale where inhibition reaches its midpoint. `O=C(c1nnc(-c2ccccc2)o1)N1CC(Oc2ccc(CN3CCCC34COC4)cc2)C1` [Example 13, (3-(4-(2-oxa-5-azaspiro[3.4]octan-5-ylmethyl)phenoxy)azetidin-1-yl)(5-phenyl-1,3,4-oxadiazol-2-yl)methanone]: the half-inhibitory concentration (IC50) in series [1] stood at 70 nM. This counts as double-digit nanomolar.

As to `O=C(c1nnc(-c2ccccc2)o1)N1CC(Oc2ccc(CN3CCC4(CCCO4)C3)cc2)C1` (centres unmarked) [Example 22, (3-(4-(1-Oxa-7-azaspiro[4.4]nonan-7-ylmethyl)phenoxy)azetidin-1-yl)(5-phenyl-1,3,4-oxadiazol-2-yl)methanone], the IC50 in series [1] was 23 nM.

`COc1cc(OC2CN(C(=O)c3nnc(-c4ccccc4)o3)C2)ccc1CN1CCCC12COC2` [Example 16, (3-(4-(2-oxa-5-azaspiro[3.4]octan-5-ylmethyl)-3-methoxyphenoxy)azetidin-1-yl)(5-phenyl-1,3,4-oxadiazol-2-yl)methanone] displayed an IC50 in series [1] of 34 nM.

As to `COc1cc(CN2CCCC23COC3)ccc1OC1CN(C(=O)c2nnc(-c3ccccc3)o2)C1` [Example 17, (3-(4-(2-oxa-5-azaspiro[3.4]octan-5-ylmethyl)-2-methoxyphenoxy)azetidin-1-yl)(5-phenyl-1,3,4-oxadiazol-2-yl)methanone], it took 420 nM to reach half-maximal inhibition in series [1] (IC50).

In series [1], `COc1ccc(-c2nnc(C(=O)N3CC(Oc4ccc(CN5CCCC56CCOC6)cc4)C3)o2)cc1` (centres unmarked) [Example 14, (3-(4-(7-oxa-1-azaspiro[4.4]nonan-1-ylmethyl)phenoxy)azetidin-1-yl)(5-(4-methoxyphenyl)-1,3,4-oxadiazol-2-yl)methanone] showed an IC50 of 23 nM.

In series [1], `COc1ccc(-c2nnc(C(=O)N3CC(Oc4ccc(CN5CC6(CCOC6)C5)cc4)C3)o2)cc1` [Example 5, (3-(4-(6-oxa-2-azaspiro[3.4]octan-2-ylmethyl)phenoxy)azetidin-1-yl)(5-(4-methoxyphenyl)-1,3,4-oxadiazol-2-yl)methanone] had an IC50 of 19 nM. For the same compound, in the series with human hepatocytes, the “fCVB value (fraction of metabolites leading to covalent binding)” value was 0.0069.

In series [1], `Cc1cc(OC2CN(C(=O)c3nnc(-c4ccccc4)o3)C2)ccc1CN1CC2(CCCO2)C1` [Example 11, (3-(4-(5-oxa-2-azaspiro[3.4]octan-2-ylmethyl)-3-methylphenoxy)azetidin-1-yl)(5-phenyl-1,3,4-oxadiazol-2-yl)methanone] gave an IC50 of 15 nM.

In turn, `O=C(c1nnc(-c2ccccc2)o1)N1CC(Oc2ccc(CN3CCC4(CCOC4)C3)cc2)C1` (centres unmarked) [Example 6, (3-(4-(2-oxa-7-azaspiro[4.4]nonan-7-ylmethyl)phenoxy)azetidin-1-yl)(5-phenyl-1,3,4-oxadiazol-2-yl)methanone] displayed an IC50 in series [1] of 19 nM.

`COc1cc(OC2CN(C(=O)c3nnc(-c4ccc(C(F)F)cc4)o3)C2)ccc1CN1CCCC12COC2` [Example 19, (3-(4-(2-oxa-5-azaspiro[3.4]octan-5-ylmethyl)-3-methoxyphenoxy)azetidin-1-yl)(5-(4-(difluoromethyl)phenyl)-1,3,4-oxadiazol-2-yl)methanone] registered an IC50 in series [1] of 38 nM.

In turn, `O=C(c1nnc(-c2ccccc2)o1)N1CC(Oc2ccc(CN3CCCC34CCOC4)cc2)C1` (centres unmarked) [Example 15, (3-(4-(7-oxa-1-azaspiro[4.4]nonan-1-ylmethyl)phenoxy)azetidin-1-yl)(5-phenyl-1,3,4-oxadiazol-2-yl)methanone] had an IC50 in series [1] of 58 nM.

`Cc1cc(OC2CN(C(=O)c3nnc(-c4ccccc4)o3)C2)ccc1CN1CCC2(CCOC2)C1` (centres unmarked) [Example 10, (3-(4-(2-oxa-7-azaspiro[4.4]nonan-7-ylmethyl)-3-methylphenoxy)azetidin-1-yl)(5-phenyl-1,3,4-oxadiazol-2-yl)methanone] came in with an IC50 in series [1] of 18 nM. Compared with the last compound, the IC50 is about 3.2-fold lower.

Consider `COc1cc(CN2CCCC23COC3)ccc1OC1CN(C(=O)c2nnc(-c3ccc(C(F)F)cc3)o2)C1` [Example 18, (3-(4-(2-oxa-5-azaspiro[3.4]octan-5-ylmethyl)-2-methoxyphenoxy)azetidin-1-yl)(5-(4-(difluoromethyl)phenyl)-1,3,4-oxadiazol-2-yl)methanone], for which the IC50 in series [1] is 150 nM.

Regarding `Cc1cc(OC2CN(C(=O)c3nnc(-c4ccccc4)o3)C2)ccc1CN1CC2(CCOC2)C1` [Example 9, (3-(4-(6-oxa-2-azaspiro[3.4]octan-2-ylmethyl)-3-methylphenoxy)azetidin-1-yl)(5-phenyl-1,3,4-oxadiazol-2-yl)methanone], in series [1], the IC50 turned out to be 15 nM.

Values taken from patent US8685958B2, “Therapeutic agents” (AstraZeneca AB, priority 2011, dated 2014).
